The results in this text go back to patent US6448422B1, “Chromogenic compound” (Eli Lilly and Company, priority 2000, dated 2002).

The target in the experiment is T1, Hepatic Lipase (Homo sapiens, UniProt P11150).
T1 sequence (P11150 23-499): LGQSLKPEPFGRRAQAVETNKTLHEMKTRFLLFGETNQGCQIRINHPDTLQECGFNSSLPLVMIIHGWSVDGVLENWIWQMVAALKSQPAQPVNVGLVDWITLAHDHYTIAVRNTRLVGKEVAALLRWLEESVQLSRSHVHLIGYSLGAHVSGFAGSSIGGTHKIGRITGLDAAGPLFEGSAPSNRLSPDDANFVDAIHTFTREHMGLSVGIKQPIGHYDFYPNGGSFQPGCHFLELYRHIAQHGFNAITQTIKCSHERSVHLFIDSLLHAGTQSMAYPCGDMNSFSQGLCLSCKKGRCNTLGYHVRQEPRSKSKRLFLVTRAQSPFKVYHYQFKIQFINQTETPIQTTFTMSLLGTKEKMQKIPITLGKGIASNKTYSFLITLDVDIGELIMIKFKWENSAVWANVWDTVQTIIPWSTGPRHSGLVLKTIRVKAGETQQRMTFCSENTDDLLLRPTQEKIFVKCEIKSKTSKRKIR
The experiment can be described thus: Hydrolysis of thioPEG and thioPC substrates by Hepatic Lipase (papain thiol detection system, FIG. 1). It counts as biochemical. Particulars: 0.5 mM thioPEG (enzyme diluted 100-5000 fold), 1.0 mM thioPC (enzyme diluted 1-64 fold). On the procedure:
Hepatic Lipase enzyme was diluted 1, 32 or 64 fold for thioPC and 100, 500, 1000 or 5000 fold for thioPEG. Hydrolysis was measured by the papain thiol detection system (discussed below). […] Data curve I represents 0.5 mM thioPEG and Data Curve II represents 1.0 mM thioPC.
The invention also has the additional advantage of requiring fewer incubation periods in order to obtain detectable color. For example as shown in Scheme D below, thioPC substrate requires a reaction coupled with an enzymatic detection process for the liberated thiol-lysophospholipid which has two additional incubation periods in the papain system. L-BAPNA is an abbreviation for N-benzoyl-L-arginine, p-nitroanilide, hydrochloride.
In Scheme E, below, thioPC is combined with hepatic lipase and incubated for about 30 minutes yielding a free-thiol lysophospholipid. […] Activated papain-SH enzyme is combined with a coloring agent, L-BAPNA, and incubated for 60 minutes yielding a colored product, p-nitro aniline. ThioPEG substrate is an improvement since it requires only a single incubation period to yield detectable color. [drawing 12]

As to `CCCCCCCCCC(=O)O[C@@H](COP(=O)(O)OCCO)CSC(=O)CCCCCCCCC` [thioPEG, (1-Decanoylthio-1-deoxy-2-decanoyl-sn-glycero-3-phosphoryl) ethylene glycol], the “hydrolysis of substrate by Hepatic Lipase (Optical Density at 410 nM vs Relative Enzyme Concentration)” value was “hydrolyzed much faster than thioPC”.

Turning to “didecanoyl-thio-phosphatidylcholine [thioPC]”, the “hydrolysis of substrate by Hepatic Lipase (Optical Density at 410 nM vs Relative Enzyme Concentration)” value was “much more slowly”.
